This is an account of results in patent US20240132492A1, “PYRIDOPYRIMIDINE-BASED COMPOUND AND APPLICATION THEREOF” (JINAN UNIVERSITY, priority 2021, published 2024).

Usually Dmax stands for the greatest extent of degradation seen. Higher therefore signals deep degradation. As a reminder, the IC50 is the concentration that inhibits the measured activity by half. Read a low IC50 as inhibition by little substance.

Assay type in all cases: cell-based
In one assay the target is AKT3 (Homo sapiens, UniProt Q9Y243). The assay is described as follows: Western Blot, degradation of AKT3 protein in H1975-OR cells. Details: endogenous in cells; host or cells: H1975-OR (osimertinib-resistant H1975). As to conditions: 1000 nM, 24 hours, maximum degradation rate. As to the method:
(§1) Cell line: Non-small cell lung cancer H1975-OR cell line, which is an Osimertinib resistant H1975 cell line, and could be obtained through low dose gradual addition culture. Specific method: H1975 cells were spread in a 10 cm culture dish at a convergence rate of 60-70%, added 50 nM of Osimertinib to the culture medium. After the cell state stabilized, the concentration of Osimertinib was gradually double to 3 μM.
(§2) Conventional Western Blot (immunoblotting) was used for detection, as follows: a certain number of H1975-OR cells were planted on a 96 well plate, adherent cultured in an incubator overnight, and added a certain concentration of compound to act for 24 hours. 1×SDS lysis buffer with protease and phosphatase inhibitors was used to lyse cells. Cell lysates were separated by SDS-PAGE and transferred to PVDF membrane. Then, at room temperature, the PCDF membrane was taken out and immersed in a sealing solution (5% BSA TBS solution containing 0.5% Tween-20) for sealing treatment for 1 hour, and then incubated with a specific primary antibody at 4° C. overnight. The imprints were washed with TBST and incubated with horseradish peroxidase (HRP) labeled secondary antibodies at room temperature for 2 hours. Finally, ECL plus fluorescence detection reagent (Thermo Scientific, Waltham, MA) was used for protein development, and the Amersham Imager 600 system (GE, America) was used for photography. The detection results were processed using ImageJ software to obtain the grayscale value G (Density).

For a further assay, the target named is T1, AKT2 (Homo sapiens, UniProt P31751).
T1 construct: AKT1, AKT2, and AKT3 proteins in H1975-OR cells; endogenous in cells; host or cells: H1975-OR (osimertinib-resistant H1975)
The experiment in a line: Western Blot, degradation of AKT2 protein in H1975-OR cells. As to conditions: 1000 nM, 24 hours, maximum degradation rate. As to the method:
as §1, §2
A general note: Immunoblotting shows a protein as a band on a membrane.

A further assay concerns the target T2, AKT1 (Homo sapiens, UniProt P31749).
T2 construct: AKT1, AKT2, and AKT3 proteins in H1975-OR cells; endogenous in cells; host or cells: H1975-OR (osimertinib-resistant H1975)
The assay is described as follows: Western Blot, degradation of AKT1 protein in H1975-OR cells. As to conditions: 1000 nM, 24 hours, maximum degradation rate. As to the method: as §1, §2

Another assay deals with H1975. The experiment in a line: CCK-8 tumor cell proliferation, H1975. As to conditions: Homo sapiens, NCI-H1975, H1975 cells, 72 hours. As to the method:
(§3) Tumor cells (see Table 2 to Table 5) were inoculated in 96-well plates in complete culture medium (2000-3000 cells/well). After overnight incubation, the compounds with different concentrations (0.000508 μM-10 μM) were used to treat the cells separately for 72 hours. CCK-8 (Cell Counting Kit 8, Dojindo Laboratories, Kumamoto, Japan) experiment was used to evaluate cell proliferation. GraphPad Prism 5.0 software (La Jolla, CA) was used to calculate the half-maximal inhibitory concentration (IC50) values by fitting the concentration response curve. Each IC50 value was represented as an average value±SD.

Another assay concerns H1975OR. The experiment in a line: CCK-8 tumor cell proliferation, H1975OR. As to conditions: H1975OR cells (Osimertinib resistant), 72 hours. On the procedure:
as §1, §3

T2 sequence (P31749 whole entry): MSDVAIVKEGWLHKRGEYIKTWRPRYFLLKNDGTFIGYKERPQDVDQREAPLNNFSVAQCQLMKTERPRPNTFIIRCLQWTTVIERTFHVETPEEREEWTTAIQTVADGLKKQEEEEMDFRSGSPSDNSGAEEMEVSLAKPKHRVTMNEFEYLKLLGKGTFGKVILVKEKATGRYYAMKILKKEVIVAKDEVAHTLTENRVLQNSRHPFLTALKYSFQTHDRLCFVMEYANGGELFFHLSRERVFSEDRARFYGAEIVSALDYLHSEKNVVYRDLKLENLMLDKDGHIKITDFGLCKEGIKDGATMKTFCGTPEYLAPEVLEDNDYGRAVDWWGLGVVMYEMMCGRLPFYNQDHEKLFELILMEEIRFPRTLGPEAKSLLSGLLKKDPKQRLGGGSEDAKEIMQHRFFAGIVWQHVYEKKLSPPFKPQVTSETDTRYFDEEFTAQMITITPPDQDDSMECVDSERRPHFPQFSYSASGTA
Chain of AKT3 (Q9Y243 whole entry): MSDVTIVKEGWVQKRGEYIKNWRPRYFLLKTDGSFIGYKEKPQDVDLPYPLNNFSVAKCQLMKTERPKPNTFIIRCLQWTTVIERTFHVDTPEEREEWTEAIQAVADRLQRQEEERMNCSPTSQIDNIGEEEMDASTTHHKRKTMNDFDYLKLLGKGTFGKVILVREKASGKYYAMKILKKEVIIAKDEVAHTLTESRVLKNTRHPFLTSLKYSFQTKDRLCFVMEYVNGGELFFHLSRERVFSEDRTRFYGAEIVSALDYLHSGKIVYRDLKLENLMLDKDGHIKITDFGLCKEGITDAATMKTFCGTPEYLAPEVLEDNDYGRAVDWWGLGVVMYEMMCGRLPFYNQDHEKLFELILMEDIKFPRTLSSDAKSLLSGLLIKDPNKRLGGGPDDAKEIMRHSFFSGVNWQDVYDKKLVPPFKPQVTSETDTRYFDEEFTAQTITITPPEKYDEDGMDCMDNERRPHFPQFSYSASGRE
T1 sequence (P31751 whole entry): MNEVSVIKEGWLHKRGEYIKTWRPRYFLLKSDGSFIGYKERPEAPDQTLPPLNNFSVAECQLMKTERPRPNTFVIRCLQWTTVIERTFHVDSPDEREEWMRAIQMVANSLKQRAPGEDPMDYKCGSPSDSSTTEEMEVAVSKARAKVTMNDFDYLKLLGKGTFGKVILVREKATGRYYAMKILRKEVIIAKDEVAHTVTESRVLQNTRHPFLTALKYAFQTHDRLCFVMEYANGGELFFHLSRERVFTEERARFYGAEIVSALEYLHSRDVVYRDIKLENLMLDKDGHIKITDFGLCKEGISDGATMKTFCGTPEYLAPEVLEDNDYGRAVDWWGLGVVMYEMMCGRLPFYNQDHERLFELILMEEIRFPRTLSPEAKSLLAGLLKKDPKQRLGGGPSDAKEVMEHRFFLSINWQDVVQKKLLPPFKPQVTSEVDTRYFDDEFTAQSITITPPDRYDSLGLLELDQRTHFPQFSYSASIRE

For `CCc1cccc(-n2c(=O)cc(C)c3cnc(Nc4ccc(N5CCN(CCCCCCCCCCCCNC(=O)CC67CC8CC(CC(C8)C6)C7)CC5)cc4OC)nc32)c1` [ZX-HYT-16, 2-((3R, 5R, 7R)-adamantan-1-yl)-N-(12-(4-(4-(8-(3-ethylphenyl)-5-methyl-7-oxy-7,8-dihydropyridino [2,3-d]pyrimidin-2-yl)amino)-3-methoxyphenyl)piperazin-1-yl) dodecyl) acetamide], the Dmax at 1 µM came to 70.3% on AKT3, 31.4% at AKT2 and 0% on AKT1.
On to `COc1cc(N2CCN(CCCCCCCCCCCCNC(=O)CC34CC5CC(CC(C5)C3)C4)CC2)ccc1Nc1ncc2c(C)cc(=O)n(-c3cccc(NC4CCN(C)CC4)c3)c2n1` [ZX-HYT-18, 2-((3R, 5R, 7R)-adamantan-1-yl)-N-(12-(4-(3-methoxy-4-(5-methyl-8-(3-(1-methylpipe-4-yl)amino)phenyl)-7-oxo-7,8-dihydropyridino [2,3-d]pyrimidin-2-yl)amino)phenyl) piperazin-1-yl) dodecyl) acetamide], for which the figures for the Dmax at 1 µM on AKT3, at AKT2 and on AKT1 were 30.6%, 0% and 0%, respectively.
`COc1cc(N2CCN(CCCCCCCCCCCCNC(=O)CC34CC5CC(CC(C5)C3)C4)CC2)ccc1Nc1ncc2c(C)cc(=O)n([C@H]3CCC[C@@H](C(=O)NC4CC4)C3)c2n1` [ZX-HYT-21, (1R, 3S)-3-(2-(4-(4-(12-(2-(((3R, 5R, 7R)-adamantan-1-yl)acetylamino)dodecyl)piperazin-1-yl)-2-methoxyphenyl)amino)-5-methyl-7-oxypyridino [2,3-d]pyrimidin-8 (7H)-yl)-N-cyclopropylcyclohexane-1-carboxylamide]: the Dmax at 1 µM was determined as 6.8% at AKT3, 0% at AKT2 and 0% at AKT1.
Take `COc1cc(N2CCN(CCCCCCCCCCCCNC(=O)CC34CC5CC(CC(C5)C3)C4)CC2)ccc1Nc1ncc2c(C)cc(=O)n([C@H]3CCCN(C(=O)C4CC4)C3)c2n1` [ZX-HYT-22]: the results for the greatest degradation seen (Dmax) at 1 µM at AKT3, at AKT2 and on AKT1 were 25%, 0% and 0%, respectively. The half-maximal inhibitory concentration (IC50) was 0.014 µM in the assay with H1975 and 0.00682 µM in the assay with H1975OR.
`COc1cc(N2CCN(CCCCCCCCCCCCNC(=O)CC34CC5CC(CC(C5)C3)C4)CC2)ccc1Nc1ncc2c(C)cc(=O)n([C@H]3CCC[C@@H](NC(=O)C4CC4)C3)c2n1` [ZX-HYT-23]: the Dmax at 1 µM on AKT3 was determined as 41.4%; on AKT2, 0%; at AKT1, 0%.
With `COc1cc(OCCOCCCCCCCCCCCCNC(=O)CC23CC4CC(CC(C4)C2)C3)ccc1Nc1ncc2c(C)cc(=O)n(-c3cccc(NC(=O)C4CC4)c3)c2n1` [ZX-HYT-27, N-(3-(2-(4-(2-((12-(2-(((3R, 5R, 7R)-adamantan-1-yl)acetylamino)dodecyl)oxy)ethoxy)-2-methoxyphenyl)amino)-5-methyl-7-oxypyridino [2,3-d]pyrimidin-8 (7H)-yl)phenyl) cyclopropaneformamide], the greatest degradation seen (Dmax) at 1 µM was found to be 76.3% at AKT3, 30.2% at AKT2 and 0% at AKT1. Moreover, the IC50 with H1975 came to 7.84 ± 1.35 µM; in the assay with H1975OR it was 1.67 ± 0.69 µM.
With `COc1cc(OCCCCCCCCCCCCNC(=O)CC23CC4CC(CC(C4)C2)C3)ccc1Nc1ncc2c(C)cc(=O)n(-c3cccc(NC(=O)C4CC4)c3)c2n1` [ZX-HYT-28, N-(3-(2-((4-((12-(2-((3R, 5R, 7R)-adamantan-1-yl)acetylamino)dodecyl)oxy)-2-methoxyphenyl)amino)-5-methyl-7-oxypyrimidino [2,3-d]pyrimidin-8 (7H)-yl)phenyl) cyclopropane formamide], the figures for the IC50 in the assay on H1975 and with H1975OR were 0.645 µM and 0.177 µM, respectively.
As to `CCCCCCCCN1CCN(c2ccc(Nc3ncc4c(C)cc(=O)n(-c5cccc(NC(=O)C6CC6)c5)c4n3)c(OC)c2)CC1` [ZX-HYT-30, N-(3-(2-((2-methoxy-4-(4-octylpiperazin-1-yl)phenyl)amino)-5-methyl-7-oxypyridino [2,3-d]pyrimidin-8 (7H)-yl)phenyl) cyclopropane formamide], the Dmax at 1 µM is 51.9% on AKT3, 37.1% on AKT2 and 40.5% on AKT1. Further, the 50% inhibitory concentration (IC50) in the assay on H1975 is more than 10 µM; with H1975OR, 8.84 ± 2.17 µM.
As to `COc1cc(N2CCN(CCCCCCCCN)CC2)ccc1Nc1ncc2c(C)cc(=O)n(-c3cccc(NC(=O)C4CC4)c3)c2n1` [ZX-HYT-31], the Dmax at 1 µM on AKT3 stood at 55.5%; at AKT2, 30.6%; at AKT1, 0%. Moreover, the IC50 with H1975 worked out at 0.145 ± 0.101 µM; in the assay on H1975OR it was 0.217 ± 0.0367 µM.
Take `COc1cc(N2CCN(CCCCCCCCNC(=O)[C@@]34CC5C[C@@](C)(C[C@@](C)(C5)C3)C4)CC2)ccc1Nc1ncc2c(C)cc(=O)n(-c3cccc(NC(=O)C4CC4)c3)c2n1` [ZX-HYT-32]: the Dmax at 1 µM on AKT3 was found to be 45.2%; on AKT2, 24.3%; at AKT1, 0%. Also, the values for the IC50 with H1975 and with H1975OR were 1.02 ± 0.24 µM and 0.21 ± 0.04 µM, respectively.
On to `COc1cc(N2CCN(CCCCCCCCNC(=O)CC(C)(C)C)CC2)ccc1Nc1ncc2c(C)cc(=O)n(-c3cccc(NC(=O)C4CC4)c3)c2n1` [ZX-HYT-33], for which the Dmax at 1 µM on AKT3 is 55.3%; at AKT2, 43.7%; on AKT1 it was 0%. The half-inhibitory concentration (IC50) in the assay with H1975 amounted to 2.31 ± 0.52 µM; with H1975OR it was 0.44 ± 0.14 µM.
On to `COc1cc(N2CCN(CCCCCCCCNC(=O)C3CCC(F)(F)CC3)CC2)ccc1Nc1ncc2c(C)cc(=O)n(-c3cccc(NC(=O)C4CC4)c3)c2n1` [ZX-HYT-34], for which the Dmax at 1 µM on AKT3 came out at 56.6%; on AKT2, 67.5%; at AKT1, 55.4%. Further, the IC50 with H1975 was 1.15 ± 0.42 µM; with H1975OR, 0.25 ± 0.12 µM.
Take `COc1cc(N2CCN(CCCCCCCCNC(=O)C34CC5CC(CC(C5)C3)C4)CC2)ccc1Nc1ncc2c(C)cc(=O)n(-c3cccc(NC(=O)C4CC4)c3)c2n1` [ZX-HYT-35, (3R,5R,7R)—N-(8-(4-(4-((8-(3-(cyclopropaneformamide)phenyl)-5-methyl-7-oxy-7,8-dihydropyridino [2,3-d-dipyrimidin-2-yl)amino)-3-methoxyphenyl)piperazin-1-yl)octyl)adamantan-1-carboxylamide]: the Dmax at 1 µM on AKT3 amounted to 43.4%; on AKT2, 39.1%; at AKT1 it was 42.2%. Moreover, the IC50 in the assay with H1975 came out at 2.59 ± 0.2 µM; with H1975OR it was 0.32 ± 0.04 µM.
Regarding `COc1cc(N2CCN(CCCCCCCCCCCCNC(=O)CC34CC5CC(CC(C5)C3)C4)CC2)ccc1Nc1ncc2c(C)cc(=O)n(-c3ccccc3)c2n1` [ZX-HYT-36, 2-((3R, 5R, 7R)-adamantan-1-yl)-N-(12-(4-(3-methoxy-4-((5-methyl-7-oxy-8-phenyl-7,8))-dihydropyridino [2,3-d]pyrimidin-2-yl)amino)phenyl) piperazin-1-yl) dodecyl) acetamide], the Dmax at 1 µM on AKT3 was determined as 12.3%; on AKT2, 0%; at AKT1, 0%. Moreover, the IC50 with H1975 is 0.219 ± 0.0782 µM; in the assay on H1975OR, 0.107 ± 0.008 µM.
As for `COc1cc(N2CCN(CCCCCCCCCCCCNC(=O)CC34CC5CC(CC(C5)C3)C4)CC2)ccc1Nc1ncc2c(C)cc(=O)n([C@H]3CCN(C(=O)C4CC4)C3)c2n1` [ZX-HYT-37], the greatest degradation seen (Dmax) at 1 µM at AKT3 is 17.5%; at AKT2 it was 0%; at AKT1, 0%. The IC50 was 4.15 ± 0.462 µM with H1975 and 6.31 ± 0.645 µM in the assay on H1975OR.
Consider `COc1cc(OCCOCCCCCCCCCCCCOCCC23CC4CC(CC(C4)C2)C3)ccc1Nc1ncc2c(C)cc(=O)n(-c3cccc(NC(=O)C4CC4)c3)c2n1` [ZX-HYT-38, N-(3-(2-((4-(2-((12-(2-((3R, 5R, 7R)-adamantan-1-yl)ethoxy)dodecyl)oxy)ethoxy)-2-methoxyphenyl)amino)-5-methyl-7-oxypyridino [2,3-d]pyrimidin-8 (7H)-yl)phenyl) cyclopropane formamide], for which the results for the Dmax at 1 µM on AKT3, on AKT2 and at AKT1 were 16.2%, 0% and 0%, respectively.
